Results published in publication PMC4691232 (Chemistry & Biology, 2015).
Entries after “also recorded” stand apart in the source; their conditions may differ.

Assays:
[1] = biological target: T1, WcbL (Burkholderia pseudomallei, UniProt H7C745); assay: biochemical
[2] = biological target: T1, WcbL; assay: biochemical; assay type: binding

T1 sequence (H7C745 1-346): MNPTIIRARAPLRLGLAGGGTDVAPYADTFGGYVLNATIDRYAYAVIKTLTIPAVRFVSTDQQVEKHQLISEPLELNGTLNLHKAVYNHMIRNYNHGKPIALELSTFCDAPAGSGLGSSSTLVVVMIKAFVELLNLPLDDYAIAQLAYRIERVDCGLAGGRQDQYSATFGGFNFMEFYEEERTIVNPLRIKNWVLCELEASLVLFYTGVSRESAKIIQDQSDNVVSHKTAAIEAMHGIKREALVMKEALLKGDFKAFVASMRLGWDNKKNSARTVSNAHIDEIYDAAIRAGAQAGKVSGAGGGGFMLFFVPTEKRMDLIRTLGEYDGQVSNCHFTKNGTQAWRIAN

SMILES	Ki [1] [µM]	activity against WcbL (structure-activity relationship study, in words) [1]	Kd [2] [µM]	cooperativity coefficient n (DSF binding) [2]
N#Cc1coc2ccccc2c1=O [3-cyanochromone]	10 ± 6	–	–	–
N#Cc1coc2c(Cl)cc(Cl)cc2c1=O [6,8-dichloro-3-cyanochromone]	–	significantly weaker activity; also recorded: far less potent inhibitor	–	–
N#Cc1coc2ccc(Br)cc2c1=O [6-bromo-3-cyanochromone]	12 ± 5	very similar to those of the original compound	–	–
Nc1ncnc2c1ncn2[C@@H]1OC(COP(=O)(O)OP(=O)(O)OP(=O)(O)O)[C@@H](O)[C@H]1O (stereo partly shown) [ATP]	–	–	33 ± 7	0.6 ± 0.06
O=P(O)(O)OCC(O)C1OC(O)C(O)C(O)C1O [M7P, D-manno-α,β-D-heptose-7-phosphate]	–	–	968 ± 37	did not show any cooperativity
O=Cc1coc2ccccc2c1=O [chromone-3-carboxaldehyde]	–	significantly weaker activity; also recorded: much weaker IC50	–	–
O=c1ccoc2ccccc12 [chromone]	–	significantly weaker activity; also recorded: does not inhibit WcbL	–	–
